From US20250213474A1, “COMPOSITIONS AND METHODS FOR METAL CONTAINING FORMULATIONS CAPABLE OF MODULATING IMMUNE RESPONSE” (The Regents of the University of Michigan, priority 2021, published 2025)

Assays:
[1] = system: VX2 squamous cell carcinoma; assay: Rabbit VX2 squamous cell carcinoma model; format: in vivo, New Zealand White rabbits; settings: IV on W0 and W1; CMP-14:0 PA 0.5 mg, diABZi 1.5 mg; versus non-treated rabbits
Method: FIGS. 32A-E: CMP-14:0 PA exerts robust efficacy in rabbit VX2 squamous cell carcinoma model. (FIG. 32A) VX2 tumor tissues were cut into pieces and implanted within the muscle of the both hindlimbs on W-3.5. Rabbits were treated IV with 0.5 mg CMP-14:0 PA or 1.5 mg diABZi on W0 and W1. Shown are (FIG. 32B) total weight of primary tumors dissected from the muscle of the hindlimbs. (FIG. 32C) total volume of the primary tumor dissected from the muscle of the hindlimbs. (FIG. 32D) Measured tumor area ratio based on H&E staining slides of lung sections. (FIG. 32E) Representative images of the lungs.
New Zealand White rabbits were used for this study. All rabbits were housed individually in cages under constant 21° C. temperature and 12-h light/dark cycles. All animals were cared for following federal, state, and local guidelines. All animal experimental procedures performed were in accordance with and approved by the Institutional Animal Care & Use Committee (IACUC) at the University of Michigan, Ann Arbor and complied with the National Institutes of Health (NIH) Guidelines for the care and use of laboratory animals. For establishing VX2 squamous cell carcinoma in rabbits, 4 mm^3 fresh tumor tissues were cut into small pieces and resuspended in 1 mL PBS for intramuscular injections within the hindlimbs. Both hindlimbs were implanted with the tumor tissue suspension. […]

[2] = Safety of CMP-14:0 PA in VX2 tumor bearing rabbits (body weight, AST, ALT); format: in vivo, New Zealand White rabbits; settings: 1.5 mg IV on W0 and W1
Method: FIGS. 31A-31C: CMP-14:0 PA is safe in rabbits. (FIG. 31A) VX2 tumor tissues were cut into pieces and implanted within the muscle of the both hindlimbs on W-3.5. […] (FIG. 31B) Serum was collected on W2 for measurement of AST and ALT levels as indicators of liver function. (FIG. 31C) Body weight changes in VX2 tumor bearing rabbits were monitored over the two cycles of treatment.
New Zealand White rabbits were used for this study. All rabbits were housed individually in cages under constant 21° C. temperature and 12-h light/dark cycles. All animals were cared for following federal, state, and local guidelines. All animal experimental procedures performed were in accordance with and approved by the Institutional Animal Care & Use Committee (IACUC) at the University of Michigan, Ann Arbor and complied with the National Institutes of Health (NIH) Guidelines for the care and use of laboratory animals. For establishing VX2 squamous cell carcinoma in rabbits, 4 mm^3 fresh tumor tissues were cut into small pieces and resuspended in 1 mL PBS for intramuscular injections within the hindlimbs. Both hindlimbs were implanted with the tumor tissue suspension. […] In the antitumor efficacy study, two doses of CMP-14:0 PA and diABZi were given with one week interval and the rabbits were euthanized 1 week after the last dose for primary tumors and lung metastasis analysis. […]

B16F10 cells = assay: B16F10 tumor model, CMP versus other STING-activating formulations; format: in vivo, C57BL/6 mice
Method: FIGS. 23A-P: Robust therapeutic effect of CMPCDA in multiple tumor models. (FIGS. 23A-23J) Therapeutic effect of CMPCDA was compared with other CDA formulations and other STING agonists in an established B16F10 tumor model. (FIGS. 23A-23E) Tumor-bearing C57BL/6 mice were treated with CMPCDA, CDA-Zn particle (CZPCDA), CDA liposome), ADU-S100, or diABZI (all 5 μg doses of STING agonists, I.T.) on the indicated time points (FIG. 23A). Shown are (FIG. 23B) the individual tumor growth, (FIG. 23C) representative photos of tumors, (FIG. 23D) average tumor growth and (FIG. 23E) survival. […] Data were analyzed by two-way ANOVA (FIG. 23D, FIG. 23I, FIG. 23P) with Bonferroni multiple comparisons post-test. Survival of (FIG. 23E, FIG. 23J, FIG. 23P) was analyzed by Kaplan-Meier survival analysis with log-rank (Mantel-Cox) test. *p and #p in (FIG. 23P) denote statistical significance relative to the untreated and CDA groups, respectively.
All animals were cared for following federal, state, and local guidelines. […] Tumor size and survival were monitored every 2-4 days. Tumor size was calculated based on equation: volume=length×width^2×0.5. […] At indicated time points, the cytokine levels in serum were measured by ELISA assay in the Cancer Center Immunology Core of the University of Michigan. The amount of tumor antigen-specific T cells among PBMC were analyzed using the IFN-γ ELISPOT assay. […]

## diABZI
[1]
  weight and volume of primary tumors in the hindlimbs: did not decrease the weight or volume of primary tumors
[2]
  rabbits with elevated level of AST and ALT: 1 out of 3
B16F10 cells; 5 μg doses of STING agonists, I.T.
  anti-tumor effect after I.T. therapy: comparable anti-tumor responses
B16F10 cells; 20 μg doses, I.V.
  anti-tumor effect after I.V. therapy: only minor anti-tumor effects
